# Columns and labels:
# [1] = biological target: T1, phosphorylated EGFR (pEGFR) (Homo sapiens, UniProt P00533); assay: Detection of phosphorylated EGFR (pEGFR) by AlphaLISA in EGF-stimulated A431 cells; type: cell-based; details: A431 cells (10% FBS), 4 hours incubation, EGF 30 ng/mL for 10 minutes
# T1 construct: performed to measure phosphorylated EGFR levels using A431 cells (10% FBS); endogenous in cells; host or cells: A431
# Procedure: Enzyme-linked immunosorbent assays (ELISA) were performed to measure phosphorylated EGFR levels using A431 cells (10% FBS). A431 (1.0*10^4 cells/40 μl/well) cells were seeded in 384 well. Compounds were dissolved in DMSO, serially diluted in DMSO and then were added, mixed, and incubated for 4 hours at 37° C., 5% C02. Following the 4-hours incubation, cells were stimulated for 10 minutes with EGF (Invitrogen, cat #PHG0311) at a final concentration of 30 ng/mL in the incubator. The media was aspirated and cells were lysed in 10 μL lysis buffer with protease and phosphatase inhibitors (PerkinElmer, cat #ALSU-PEGFR-A50K). The plates were placed on a shaker for 5 μminutes and then incubated for 30 min at 4° C. for complete lysis. The lysate was transferred to an Optiplate (Perkin Elmer, cat #6007290).
# Acceptor mix (PerkinElmer, cat #ALSU-PEGFR-A50K) was prepared just before use and 5 μL was dispensed to all the wells, followed by a 1.5-2 h incubation at room temperature in dark. The donor mix (PerkinElmer, cat #ALSU-PEGFR-A50K) was prepared under low light conditions prior to use and 5 μl of donor mix was added to all the wells under subdued lighting or green filters. The plates were placed on a shaker for 5 μmin, sealed, and incubated overnight at room temperature in dark. Plates were read on the Envision (PerkinElmer) using standard AlphaLISA settings.
# The percentage of inhibition on EGFR phosphorylation was calculated following equation: % Inhibition=100×(LumHC−LumSample)/(LumHC−LumLC). The low and high controls (LC/HC) are generated from lysate from wells with cells treated with DMSO or […] Staurosporine (BioAustralis, cat #BIA-S1086), […]. IC50 values were calculated by fitting the Curve using XLfit (v5.3.1.3), equation 201: Y=Bottom+(Top−Bottom)/(1+10^((Log IC50−X)*HillSlope)).
# [2] = biological target: T2, phosphorylated ERBB2 (pERBB2) (Homo sapiens, UniProt P04626); assay: Detection of phosphorylated ERBB2 (pERBB2) by ELISA in BT-474 cells; type: cell-based; details: four hour incubation
# T2 construct: endogenous in cells; host or cells: BT-474
# Procedure: BT-474 cells were seeded into a 96-well at 2.0*10^4 cells/100 μl/well. Compounds were dissolved and serially diluted in DMSO. The compounds were then were added, mixed, and incubated for four hours at 37° C., 5% CO2. Compounds were added using four-fold dilutions at final concentrations ranging from 10 μM to 0.01 nM. Following the four hour incubation with compounds, cell lysates were prepared. Plates were centrifuged for 5 μmin at 3000 RPM, and supernatant was removed from each well. Cells were washed 3 times by resuspension in 150 μl PBS, followed by centrifugation and removal of the supernatant, as above. 100 μl of cell lysis buffer (Boston BioProducts, cat #BP-115D) supplied with 1× complete ULTRA cocktail inhibitor (Thermo ScientificTM, cat #78443) was then added to the washed cells. Cells were incubated with lysis buffer for 1 hour at 4° C., and then stored at -80° C. Enzyme-linked immunosorbent assays (ELISA) were performed to measure phosphorylated ERBB2 levels. […] The next day, plates were washed with PBS+0.05% Tween20 (PBST). 150 μl of 5% BSA blocking solution was added for 1 hour at room temperature, with shaking. Plates were washed with PBST. Cell lysates were thawed and 100 μl of lysate was added to the ELISA plate. The plates were incubated for 2 hours at room temperature, with shaking. ELISA plates were then washed with PBST and 100 μl of an HRP-labeled detection antibody that binds phosphorylated tyrosine (R&D Systems, cat #841913) was added to each well. Plates were incubated for 1 hour at room temperature, with shaking. Plates were then washed with PBST, and 100 μl TMB substrate solution (R&D Systems, cat #DY999) was added. Plate were incubated in the dark for 20 minutes at room temperature. 50 μl of Stop solution (R&D Systems, cat #DY994) (50 μl) was added to each well and mixed. Optical density at 450 nm was read on an EnSpire plate reader (Perkin Elmer). The remaining kinase activity by calculated using the following formula: % Relative activity=100×([…]). The low and high control values (“LC” and “HC”) were generated from lysate from wells without cells or with cells treated with 0.1% DMSO, respectively.
# T2 sequence (P04626 23-1255): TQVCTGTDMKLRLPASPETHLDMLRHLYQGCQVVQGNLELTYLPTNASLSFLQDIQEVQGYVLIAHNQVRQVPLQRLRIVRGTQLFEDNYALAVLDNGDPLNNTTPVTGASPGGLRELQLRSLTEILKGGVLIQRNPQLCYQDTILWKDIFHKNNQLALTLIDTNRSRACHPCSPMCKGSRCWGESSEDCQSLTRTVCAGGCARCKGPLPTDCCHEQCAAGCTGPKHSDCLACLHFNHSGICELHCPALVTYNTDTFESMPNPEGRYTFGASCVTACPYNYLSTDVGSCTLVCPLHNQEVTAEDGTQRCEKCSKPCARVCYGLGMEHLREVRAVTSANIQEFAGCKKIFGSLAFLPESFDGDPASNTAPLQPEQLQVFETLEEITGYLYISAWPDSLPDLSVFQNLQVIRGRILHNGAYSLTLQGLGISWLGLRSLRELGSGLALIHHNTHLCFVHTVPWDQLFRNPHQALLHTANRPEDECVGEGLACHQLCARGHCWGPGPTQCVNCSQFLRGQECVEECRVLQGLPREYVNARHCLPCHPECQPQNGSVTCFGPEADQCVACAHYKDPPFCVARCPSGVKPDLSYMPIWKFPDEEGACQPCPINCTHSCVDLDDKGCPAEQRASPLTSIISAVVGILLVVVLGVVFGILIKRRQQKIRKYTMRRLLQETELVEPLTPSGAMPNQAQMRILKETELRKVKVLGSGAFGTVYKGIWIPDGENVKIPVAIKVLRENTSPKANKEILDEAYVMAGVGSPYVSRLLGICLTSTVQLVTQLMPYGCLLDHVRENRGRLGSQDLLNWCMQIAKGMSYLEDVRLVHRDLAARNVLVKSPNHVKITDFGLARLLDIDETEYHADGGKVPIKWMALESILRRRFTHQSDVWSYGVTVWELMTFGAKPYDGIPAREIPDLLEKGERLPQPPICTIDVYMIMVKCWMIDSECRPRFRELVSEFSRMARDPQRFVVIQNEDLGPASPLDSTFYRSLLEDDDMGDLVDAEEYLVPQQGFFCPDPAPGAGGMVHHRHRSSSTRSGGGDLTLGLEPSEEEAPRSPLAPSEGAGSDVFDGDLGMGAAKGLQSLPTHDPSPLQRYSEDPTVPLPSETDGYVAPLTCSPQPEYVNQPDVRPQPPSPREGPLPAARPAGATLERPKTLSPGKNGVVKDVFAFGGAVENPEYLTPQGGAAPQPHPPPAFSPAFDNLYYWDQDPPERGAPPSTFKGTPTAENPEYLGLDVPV
# T1 sequence (P00533 25-1210): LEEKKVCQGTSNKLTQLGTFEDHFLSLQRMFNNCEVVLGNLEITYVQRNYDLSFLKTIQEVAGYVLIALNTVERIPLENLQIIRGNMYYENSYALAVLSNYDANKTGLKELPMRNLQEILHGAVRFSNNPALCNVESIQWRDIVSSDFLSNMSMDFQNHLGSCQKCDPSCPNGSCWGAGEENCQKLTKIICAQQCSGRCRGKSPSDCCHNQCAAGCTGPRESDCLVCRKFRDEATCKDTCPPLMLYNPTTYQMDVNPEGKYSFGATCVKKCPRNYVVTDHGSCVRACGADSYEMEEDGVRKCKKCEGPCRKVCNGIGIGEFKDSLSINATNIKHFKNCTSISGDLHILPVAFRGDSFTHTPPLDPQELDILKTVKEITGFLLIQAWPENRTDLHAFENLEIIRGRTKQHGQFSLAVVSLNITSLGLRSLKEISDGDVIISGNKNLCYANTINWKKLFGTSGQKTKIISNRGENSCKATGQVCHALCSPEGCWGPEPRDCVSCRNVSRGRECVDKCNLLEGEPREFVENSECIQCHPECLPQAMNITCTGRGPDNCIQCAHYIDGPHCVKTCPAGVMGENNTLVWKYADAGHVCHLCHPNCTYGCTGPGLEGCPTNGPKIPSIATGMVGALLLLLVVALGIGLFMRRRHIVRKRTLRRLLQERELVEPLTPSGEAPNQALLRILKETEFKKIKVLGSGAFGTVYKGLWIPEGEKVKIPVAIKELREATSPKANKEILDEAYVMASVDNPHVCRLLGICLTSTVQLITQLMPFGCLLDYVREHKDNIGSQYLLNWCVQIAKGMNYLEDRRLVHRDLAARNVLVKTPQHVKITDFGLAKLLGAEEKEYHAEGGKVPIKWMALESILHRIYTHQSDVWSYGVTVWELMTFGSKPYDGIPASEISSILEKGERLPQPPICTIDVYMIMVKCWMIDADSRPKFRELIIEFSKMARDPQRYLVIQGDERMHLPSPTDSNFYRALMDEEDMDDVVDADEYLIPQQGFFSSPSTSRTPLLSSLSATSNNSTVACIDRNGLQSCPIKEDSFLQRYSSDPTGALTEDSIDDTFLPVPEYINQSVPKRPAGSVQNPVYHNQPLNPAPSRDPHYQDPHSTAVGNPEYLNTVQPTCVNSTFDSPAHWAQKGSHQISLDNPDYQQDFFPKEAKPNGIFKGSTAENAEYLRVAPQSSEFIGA
Structure (SMILES),IC50 [1],IC50 [2]
"Cc1cc(Nc2ncnc3cc4c(cc23)N2CCNC[C@H]2CO4)ccc1Oc1ccn2ncnc2c1 [Compound 57, (S)—N-(4-([1,2,4]triazolo[1,5-a]pyridin-7-yloxy)-3-methylphenyl)-1,2,3,4,4a,5-hexahydropyrazino[1′,2′:4,5][1,4]oxazino[3,2-g]quinazolin-11-amine]",> 10000 nM,26.7 nM
"Cc1cc(Nc2ncnc3cc4c(cc23)N2CCNC[C@@H]2CO4)ccc1Oc1ccn2ncnc2c1 [Compound 59, (R)—N-(4-([1,2,4]triazolo[1,5-a]pyridin-7-yloxy)-3-methylphenyl)-1,2,3,4,4a,5-hexahydropyrazino[1′,2′:4,5][1,4]oxazino[3,2-g]quinazolin-11-amine]",> 10000 nM,91.7 nM
"Cc1cc(Nc2ncnc3cc4c(cc23)N2CCNC[C@H]2CO4)ccc1Oc1ccc2c(c1)ncn2C [Compound 61, (S)—N-(3-methyl-4-((1-methyl-1H-benzo[d]imidazol-5-yl)oxy)phenyl)-1,2,3,4,4a,5-hexahydropyrazino[1′,2′:4,5][1,4]oxazino[3,2-g]quinazolin-11-amine]",> 10000 nM,118 nM
"Cc1cc(Nc2ncnc3cc4c(cc23)N2CCNC[C@@H]2CO4)ccc1Oc1ccc2c(c1)ncn2C [Compound 63, (R)—N-(3-methyl-4-((1-methyl-1H-benzo[d]imidazol-5-yl)oxy)phenyl)-1,2,3,4,4a,5-hexahydropyrazino[1′,2′:4,5][1,4]oxazino[3,2-g]quinazolin-11-amine]",> 10000 nM,153 nM
"Cc1cc(Nc2ncnc3cc4c(c(F)c23)N2CCN(C)C[C@H]2CO4)ccc1Oc1ccn2ncnc2c1 [Compound 66, (S)—N-(4-([1,2,4]triazolo[1,5-a]pyridin-7-yloxy)-3-methylphenyl)-12-fluoro-3-methyl-1,2,3,4,4a,5-hexahydropyrazino[1′,2′:4,5][1,4]oxazino[3,2-g]quinazolin-11-amine]",> 10000 nM,119 nM
"Cc1cc(Nc2ncnc3cc4c(nc23)N2CCOC[C@H]2CO4)ccc1Oc1ccn2ncnc2c1 [Compound 67, (S)—N-(4-([1,2,4]triazolo[1,5-a]pyridin-7-yloxy)-3-methylphenyl)-1,2,4a,5-tetrahydro-4H-[1,4]oxazino[4,3-d]pyrimido[4′,5′:5,6]pyrido[3,2-b][1,4]oxazin-11-amine]",> 10000 nM,46.4 nM
"Cc1cc(Nc2ncnc3cc4c(nc23)N2CCCC[C@H]2CO4)ccc1Oc1ccn2ncnc2c1 [Compound 68, (S)—N-(4-([1,2,4]triazolo[1,5-a]pyridin-7-yloxy)-3-methylphenyl)-1,2,3,4,4a,5-hexahydropyrido[1,2-d]pyrimido[4′,5′:5,6]pyrido[3,2-b][1,4]oxazin-11-amine]",> 10000 nM,55.5 nM
"Cc1cc(Nc2ncnc3ccc4c(c23)OC[C@H]2CN4CCO2)ccc1Oc1ccn2ncnc2c1 [Compound 71, (3R)—N-(4-([1,2,4]triazolo[1,5-a]pyridin-7-yloxy)-3-methylphenyl)-2,3,5,6-tetrahydro-3,7-methano[1,4,7]dioxazonino[5,6-f]quinazolin-13-amine]",> 10000 nM,227 nM
"Cc1cc(Nc2ncnc3ccc4c(c23)OC[C@@H]2CN4CCO2)ccc1Oc1ccn2ncnc2c1 [Compound 72, (3S)—N-(4-([1,2,4]triazolo[1,5-a]pyridin-7-yloxy)-3-methylphenyl)-2,3,5,6-tetrahydro-3,7-methano[1,4,7]dioxazonino[5,6-f]quinazolin-13-amine]",> 10000 nM,417 nM

# Second part, the molecule after the results:
IC50 [1],IC50 [2],Structure (SMILES)
> 10000 nM,21.9 nM,"Cc1cc(Nc2ncnc3cc4c(cc23)N2CCN(C)C[C@H]2CO4)ccc1Oc1ccn2ncnc2c1 [Compound 58, (S)—N-(4-([1,2,4]triazolo[1,5-a]pyridin-7-yloxy)-3-methylphenyl)-3-methyl-1,2,3,4,4a,5-hexahydropyrazino[1′,2′:4,5][1,4]oxazino[3,2-g]quinazolin-11-amine]"
> 10000 nM,97.2 nM,"Cc1cc(Nc2ncnc3cc4c(cc23)N2CCN(C)C[C@@H]2CO4)ccc1Oc1ccn2ncnc2c1 [Compound 60, (R)—N-(4-([1,2,4]triazolo[1,5-a]pyridin-7-yloxy)-3-methylphenyl)-3-methyl-1,2,3,4,4a,5-hexahydropyrazino[1′,2′:4,5][1,4]oxazino[3,2-g]quinazolin-11-amine]"
> 10000 nM,38.5 nM,"Cc1cc(Nc2ncnc3cc4c(cc23)N2CCN(C)C[C@H]2CO4)ccc1Oc1ccc2c(c1)ncn2C [Compound 62, (S)-3-methyl-N-(3-methyl-4-((1-methyl-1H-benzo[d]imidazol-5-yl)oxy)phenyl)-1,2,3,4,4a,5-hexahydropyrazino[1′,2′:4,5][1,4]oxazino[3,2-g]quinazolin-11-amine]"
> 10000 nM,223 nM,"Cc1cc(Nc2ncnc3cc4c(cc23)N2CCN(C)C[C@@H]2CO4)ccc1Oc1ccc2c(c1)ncn2C [Compound 64, (R)-3-methyl-N-(3-methyl-4-((1-methyl-1H-benzo[d]imidazol-5-yl)oxy)phenyl)-1,2,3,4,4a,5-hexahydropyrazino[1′,2′:4,5][1,4]oxazino[3,2-g]quinazolin-11-amine]"
> 10000 nM,94.9 nM,"CCN1CCN2c3nc4c(Nc5ccc(Oc6ccn7ncnc7c6)c(C)c5)ncnc4cc3OC[C@@H]2C1 [Compound 65, (S)—N-(4-([1,2,4]triazolo[1,5-a]pyridin-7-yloxy)-3-methylphenyl)-3-ethyl-1,2,3,4,4a,5-hexahydropyrazino[1,2-d]pyrimido[4′,5′:5,6]pyrido[3,2-b][1,4]oxazin-11-amine]"
> 10000 nM,99.8 nM,"Cc1cc(Nc2ncnc3cc4c(nc23)N2CCC[C@H]2CO4)ccc1Oc1ccn2ncnc2c1 [Compound 69, (S)—N-(4-([1,2,4]triazolo[1,5-a]pyridin-7-yloxy)-3-methylphenyl)-2,3,3a,4-tetrahydro-1H-pyrimido[4′,5′:5,6]pyrido[3,2-b]pyrrolo[1,2-d][1,4]oxazin-10-amine]"
> 10000 nM,185 nM,"Cc1cc(Nc2ncnc3cc4c(nc23)N2CC[C@H]2CO4)ccc1Oc1ccn2ncnc2c1 [Compound 70, (S)—N-(4-([1,2,4]triazolo[1,5-a]pyridin-7-yloxy)-3-methylphenyl)-1,2,2a,3-tetrahydroazeto[1,2-d]pyrimido[4′,5′:5,6]pyrido[3,2-b][1,4]oxazin-9-amine]"
> 10000 nM,198 nM,"Cc1ccc(Oc2ccc(Nc3ncnc4cc5c(nc34)N3CCN(C)C[C@H]3CO5)cc2C)cn1 [Compound 73, (S)-3-methyl-N-(3-methyl-4-((6-methylpyridin-3-yl)oxy)phenyl)-1,2,3,4,4a,5-hexahydropyrazino[1,2-d]pyrimido[4′,5′:5,6]pyrido[3,2-b][1,4]oxazin-11-amine]"
> 10000 nM,98.1 nM,"Cc1c(Oc2ccn3ncnc3c2)ccc(Nc2ncnc3cc4c(nc23)N2CCN(C)C[C@H]2CO4)c1F [Compound 74, (S)—N-(4-([1,2,4]triazolo[1,5-a]pyridin-7-yloxy)-2-fluoro-3-methylphenyl)-3-methyl-1,2,3,4,4a,5-hexahydropyrazino[1,2-d]pyrimido[4′,5′:5,6]pyrido[3,2-b][1,4]oxazin-11-amine]"
